Key:
[1] = tested on: aorta thoracica of a Wistar rat; assay: Suppression of 20 mM K shrinkage (contraction) of rat aorta thoracica (Test Example 1); conditions: Klebs-Heneleit solution, 37° C., 20 mMK, read-out: Rat aorta IC30 20 mMK (dose of a drug suppressing 30% of 20 mMK shrinkage)
Experimental: The aorta thoracica of a Wistar rat was resected and then suspended in a Klebs-Heneleit solution kept at 37° C., according to the Weir and Weston's method (Br. J. Pharmac., 88, 121, (1986)), to determine the dose (IC30 20 mMK) of a drug suppressing 30% of 20 mMK shrinkage. As control, the same test done about the known compound A described in Bull. Soc. Chem. Fr., 1975, 829.

[2] = tested on: spontaneous hypertensive rats (OKAMOTO-AOKI strain); assay: Blood pressure lowering in spontaneous hypertensive rats after oral administration (Test Example 2); assay type: in vivo; conditions: 2 hours after the dosing, direct method
Experimental: At a dose of 3 mg/kg or 10 mg/kg, the compound of the present invention was orally administered to spontaneous hypertensive rats (OKAMOTO-AOKI strain) with an average blood pressure of 150 mmHg or more. According to the direct method described by Nakano H. and Takayanagi K., Japanese Journal of Pharmacology, Vol. 25, 25 (1975), blood pressure and cardiac output were measured. Using the compound A used in the Test Example 1 as control, the same test was done.

Structure (SMILES) | IC30 [1] | Mean blood pressure: Blood pressure decrease ([2]; 10 mg/kg) | Mean blood pressure: Blood pressure decrease ([2]; 3 mg/kg)
CNC(=S)C(C)(C)C(=O)c1ccc(C#N)cc1 [Compound 224] | 5 µM | 38.8 mmHg | 
CNC(=S)C(C)(C)C(=O)c1ccc(-n2ccnc2)cc1 [Compound 226] | 13 µM | 35.9 mmHg | 
CNC(=S)C(C)(C)C(=O)c1cccc(-n2ccnc2)c1 [Compound 265] | 0.62 µM |  | 76.5 mmHg
CNC(=S)C(C)(C)C(=O)c1ccccc1-n1ccnc1 [Compound 302] |  | 51.9 mmHg | 
CNC(=S)C1(C(=O)c2ccc(-n3ccnc3)cc2)CC1 [Compound 342] |  | 31.2 mmHg | 
CNC(=S)C1(C(=O)c2ccc(-n3ccnc3)cc2)CCC1 [Compound 356, 4-(1-imidazolyl)-N-methyl-β-oxo-α,α-trimethylenebenzenepropanethioamide] | 2.1 µM | 58.9 mmHg | 
CNC(=S)C1(C(=O)c2ccc(-n3ccnc3C)cc2)CCC1 [Compound 357] | 0.18 µM | 78.4 mmHg | 
CNC(=S)C(C)(C)C(=O)c1ccccc1 [Compound A, N, α, α-trimethyl-β-oxobenzenepropanethioamide, reference compound] | 13.6 µM | 14.1 mmHg | 

From patent US5439927A, “Imidazoyl-β-oxo-β-benzenepropanethiomide derivative, compositions and method of use thereof” (Mitsubishi Kasei Corporation, priority 1991, dated 1995)
